Data as given in ChEMBL document CHEMBL1201862, “PubChem BioAssay data set” (2004).
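Dose response: 5 concentrations. Exposure: 48 h. Format: 96-well plates. Endpoint: linear interpolation; highest concentration if not reached. GI50 is the concentration that inhibits growth by half.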 Calls of active or inactive are those of the source. Cut-off read from the data, not from the text of the source: active = GI50 up to about 1.1 µM and inactive = higher.

Key:
Experiment in all cases: growth of human tumour cells (NCI), 48 h
NCI-H522 = system: NCI-H522
U-251 = system: U-251
K562 = system: K562
NCI-H23 = system: NCI-H23
NCI/ADR-RES = system: NCI/ADR-RES
SNB-19 = system: SNB-19
DMS-273 = system: DMS-273
UO-31 = system: UO-31
A549 = system: A549
SK-MEL-2 = system: SK-MEL-2
RXF 393 = system: RXF 393
OVCAR-8 = system: OVCAR-8
M19-MEL = system: M19-MEL
COLO 205 = system: COLO 205
DLD-1 = system: DLD-1
HOP-18 = system: HOP-18
NCI-H226 = system: NCI-H226
OVCAR-4 = system: OVCAR-4
OVCAR-3 = system: OVCAR-3
HCC 2998 = system: HCC 2998
UACC-62 = system: UACC-62
A498 = system: A498
EKVX = system: EKVX
SF-295 = system: SF-295
XF498 = system: XF498
DMS-114 = system: DMS-114
SK-MEL-5 = system: SK-MEL-5
SK-MEL-28 = system: SK-MEL-28
HOP-92 = system: HOP-92
MOLT-4 = system: MOLT-4
HOP-62 = system: HOP-62
NCI-H460 = system: NCI-H460
HCT-15 = system: HCT-15
LOX IMVI = system: LOX IMVI
HL-60 = system: HL-60
KM12 = system: KM12
SNB-75 = system: SNB-75
IGROV-1 = system: IGROV-1
UACC-257 = system: UACC-257
CCRF-CEM = system: CCRF-CEM
SNB-78 = system: SNB-78
SF-268 = system: SF-268
SN12C = system: SN12C
KM-20L2 = system: KM-20L2
MCF7 = system: MCF7
HT-29 = system: HT-29
CAKI-1 = system: CAKI-1
SW-620 = system: SW-620
RPMI-8226 = system: RPMI-8226
SK-OV-3 = system: SK-OV-3
OVCAR-5 = system: OVCAR-5
Malme-3M = system: Malme-3M
HCT-116 = system: HCT-116
SF-539 = system: SF-539
ACHN = system: ACHN
786-0 = system: 786-0
TK-10 = system: TK-10
M14 = system: M14
LXFL 529 = system: LXFL 529

CCOC(=O)/C(O)=C1\C(=O)N(C)C(=O)C1c1ccc(OC)c(OC)c1 (configuration not stated)
GI50 (NCI-H522): > 100 µM (inactive)
GI50 (U-251): > 100 µM (inactive)
GI50 (K562): > 100 µM (inactive)
GI50 (NCI-H23): > 100 µM (inactive)
GI50 (NCI/ADR-RES): > 100 µM (inactive)
GI50 (SNB-19): > 100 µM (inactive)
GI50 (DMS-273): > 100 µM (inactive)
GI50 (UO-31): > 100 µM (inactive)
GI50 (A549): > 100 µM (inactive)
GI50 (SK-MEL-2): > 100 µM (inactive)
GI50 (RXF 393): > 100 µM (inactive)
GI50 (OVCAR-8): > 100 µM (inactive)
GI50 (M19-MEL): > 100 µM (inactive)
GI50 (COLO 205): > 100 µM (inactive)
GI50 (DLD-1): > 100 µM (inactive)
GI50 (HOP-18): > 100 µM (inactive)
GI50 (NCI-H226): > 100 µM (inactive)
GI50 (OVCAR-4): > 100 µM (inactive)
GI50 (OVCAR-3): > 100 µM (inactive)
GI50 (HCC 2998): > 100 µM (inactive)
GI50 (UACC-62): > 100 µM (inactive)
GI50 (A498): > 100 µM (inactive)
GI50 (EKVX): > 100 µM (inactive)
GI50 (SF-295): > 100 µM (inactive)
GI50 (XF498): > 100 µM (inactive)
GI50 (DMS-114): > 100 µM (inactive)
GI50 (SK-MEL-5): > 100 µM (inactive)
GI50 (SK-MEL-28): > 100 µM (inactive)
GI50 (HOP-92): > 100 µM (inactive)
GI50 (MOLT-4): > 100 µM (inactive)
GI50 (HOP-62): > 100 µM (inactive)
GI50 (NCI-H460): > 100 µM (inactive)
GI50 (HCT-15): > 100 µM
GI50 (LOX IMVI): > 100 µM (inactive)
GI50 (HL-60): > 100 µM (inactive)
GI50 (KM12): > 100 µM (inactive)
GI50 (SNB-75): > 100 µM (inactive)
GI50 (IGROV-1): > 100 µM (inactive)
GI50 (UACC-257): > 100 µM (inactive)
GI50 (CCRF-CEM): > 100 µM (inactive)
GI50 (SNB-78): > 100 µM (inactive)
GI50 (SF-268): > 100 µM (inactive)
GI50 (SN12C): > 100 µM (inactive)
GI50 (KM-20L2): > 100 µM (inactive)
GI50 (MCF7): > 100 µM (inactive)
GI50 (HT-29): > 100 µM (inactive)
GI50 (CAKI-1): > 100 µM (inactive)
GI50 (SW-620): > 31.6 µM (inactive)
GI50 (RPMI-8226): > 100 µM (inactive)
GI50 (SK-OV-3): > 100 µM (inactive)
GI50 (OVCAR-5): > 100 µM (inactive)
GI50 (Malme-3M): > 100 µM (inactive)
GI50 (HCT-116): > 100 µM (inactive)
GI50 (SF-539): > 100 µM (inactive)

CC1C[C@H](OC(N)=O)C(C)CC1=O (some centres not stated)
GI50 (U-251): > 100 µM (inactive)
GI50 (K562): > 100 µM (inactive)
GI50 (NCI-H23): > 100 µM (inactive)
GI50 (SNB-19): > 100 µM (inactive)
GI50 (DMS-273): > 100 µM (inactive)
GI50 (UO-31): > 100 µM (inactive)
GI50 (A549): > 100 µM (inactive)
GI50 (SK-MEL-2): > 100 µM (inactive)
GI50 (ACHN): > 100 µM (inactive)
GI50 (RXF 393): > 100 µM (inactive)
GI50 (OVCAR-8): > 100 µM (inactive)
GI50 (M19-MEL): > 100 µM (inactive)
GI50 (COLO 205): > 100 µM (inactive)
GI50 (DLD-1): > 100 µM (inactive)
GI50 (HOP-18): > 100 µM (inactive)
GI50 (OVCAR-4): > 100 µM (inactive)
GI50 (OVCAR-3): > 100 µM (inactive)
GI50 (786-0): > 100 µM (inactive)
GI50 (HCC 2998): > 100 µM (inactive)
GI50 (UACC-62): > 100 µM (inactive)
GI50 (A498): > 100 µM (inactive)
GI50 (EKVX): > 100 µM (inactive)
GI50 (TK-10): > 100 µM (inactive)
GI50 (SF-295): > 100 µM (inactive)
GI50 (XF498): > 100 µM (inactive)
GI50 (DMS-114): > 100 µM (inactive)
GI50 (SK-MEL-5): > 100 µM (inactive)
GI50 (HOP-92): 30.2 µM (inactive)
GI50 (MOLT-4): > 100 µM (inactive)
GI50 (HOP-62): > 100 µM (inactive)
GI50 (NCI-H460): > 100 µM (inactive)
GI50 (HCT-15): > 100 µM
GI50 (LOX IMVI): > 100 µM (inactive)
GI50 (HL-60): > 100 µM (inactive)
GI50 (KM12): > 100 µM (inactive)
GI50 (SNB-75): > 100 µM (inactive)
GI50 (IGROV-1): > 100 µM (inactive)
GI50 (UACC-257): > 100 µM (inactive)
GI50 (CCRF-CEM): > 100 µM (inactive)
GI50 (SNB-78): > 100 µM (inactive)
GI50 (SF-268): > 100 µM (inactive)
GI50 (M14): > 100 µM (inactive)
GI50 (SN12C): > 100 µM (inactive)
GI50 (KM-20L2): > 100 µM (inactive)
GI50 (HT-29): > 100 µM (inactive)
GI50 (CAKI-1): > 100 µM (inactive)
GI50 (SW-620): > 100 µM (inactive)
GI50 (RPMI-8226): > 100 µM (inactive)
GI50 (SK-OV-3): > 100 µM (inactive)
GI50 (OVCAR-5): > 100 µM (inactive)
GI50 (Malme-3M): > 100 µM (inactive)
GI50 (HCT-116): > 100 µM (inactive)
GI50 (SF-539): > 100 µM (inactive)
GI50 (LXFL 529): > 100 µM (inactive)

Cn1cc(NC(=O)c2cc(NC(=O)CCCCCCCCCC(=O)Nc3cc(C(=O)Nc4cc(C(=O)NCCC(=N)N)n(C)c4)n(C)c3)cn2C)cc1C(=O)NCCC(=N)N
GI50 (NCI-H522): 11 µM (inactive)
GI50 (U-251): 27.4 µM (inactive)
GI50 (K562): 14.3 µM (inactive)
GI50 (NCI-H23): 34.8 µM (inactive)
GI50 (SNB-19): 30.8 µM (inactive)
GI50 (DMS-273): 33.2 µM (inactive)
GI50 (UO-31): 53.5 µM (inactive)
GI50 (A549): 18.7 µM (inactive)
GI50 (SK-MEL-2): 29.3 µM (inactive)
GI50 (ACHN): 23.5 µM (inactive)
GI50 (RXF 393): 32.1 µM (inactive)
GI50 (OVCAR-8): 25.7 µM (inactive)
GI50 (M19-MEL): 34.1 µM (inactive)
GI50 (COLO 205): 21.2 µM (inactive)
GI50 (DLD-1): 34.2 µM (inactive)
GI50 (HOP-18): 35.3 µM (inactive)
GI50 (NCI-H226): > 100 µM (inactive)
GI50 (OVCAR-4): 34.8 µM (inactive)
GI50 (OVCAR-3): 19.2 µM (inactive)
GI50 (786-0): 29.4 µM (inactive)
GI50 (UACC-62): 31.2 µM (inactive)
GI50 (EKVX): 28.6 µM (inactive)
GI50 (TK-10): 22.7 µM (inactive)
GI50 (SF-295): 22.1 µM (inactive)
GI50 (XF498): 32.9 µM (inactive)
GI50 (DMS-114): 84.9 µM (inactive)
GI50 (SK-MEL-5): 14.7 µM (inactive)
GI50 (SK-MEL-28): 11.9 µM (inactive)
GI50 (HOP-92): 16.4 µM (inactive)
GI50 (MOLT-4): 25.1 µM (inactive)
GI50 (HOP-62): 24.5 µM (inactive)
GI50 (NCI-H460): 23.9 µM (inactive)
GI50 (HCT-15): 39.3 µM
GI50 (LOX IMVI): 31 µM (inactive)
GI50 (KM12): 13.1 µM (inactive)
GI50 (SNB-75): 27.9 µM (inactive)
GI50 (IGROV-1): 41.5 µM (inactive)
GI50 (UACC-257): 15.8 µM (inactive)
GI50 (CCRF-CEM): 22.6 µM (inactive)
GI50 (SNB-78): 37.2 µM (inactive)
GI50 (SF-268): 21.8 µM (inactive)
GI50 (M14): 23.1 µM (inactive)
GI50 (SN12C): 32.2 µM (inactive)
GI50 (KM-20L2): 31.2 µM (inactive)
GI50 (HT-29): 20.7 µM (inactive)
GI50 (CAKI-1): 32 µM (inactive)
GI50 (SW-620): 32 µM (inactive)
GI50 (RPMI-8226): 8.26 µM (inactive)
GI50 (SK-OV-3): 92 µM (inactive)
GI50 (OVCAR-5): 32.7 µM (inactive)
GI50 (Malme-3M): 0.971 µM (active)
GI50 (HCT-116): 24.5 µM (inactive)
GI50 (SF-539): 37.9 µM (inactive)
GI50 (LXFL 529): 24.5 µM (inactive)
